Experimental data reported in patent publication US20230065799A1, “METHOD FOR ATTRIBUTING OLFACTORY TONALITIES TO OLFACTORY RECEPTOR ACTIVATION AND METHODS FOR IDENTIFYING COMPOUNDS HAVING THE ATTRIBUTED TONALITIES” (FIRMENICH SA, priority 2019, published 2023).

Experiments:
OR7A17 = molecular target: T1, OR7A17 (Homo sapiens, UniProt O14581); assay: OR7A17 cell-based cAMP HTRF assay; conditions: dose-response, 100% = full agonist
T1 construct: Lucy (cleavable signal peptide) (N); FLAG (N); Rho (first 20 aa of bovine rhodopsin) (N); expressed in transfected cells
T1 sequence (O14581 1-309): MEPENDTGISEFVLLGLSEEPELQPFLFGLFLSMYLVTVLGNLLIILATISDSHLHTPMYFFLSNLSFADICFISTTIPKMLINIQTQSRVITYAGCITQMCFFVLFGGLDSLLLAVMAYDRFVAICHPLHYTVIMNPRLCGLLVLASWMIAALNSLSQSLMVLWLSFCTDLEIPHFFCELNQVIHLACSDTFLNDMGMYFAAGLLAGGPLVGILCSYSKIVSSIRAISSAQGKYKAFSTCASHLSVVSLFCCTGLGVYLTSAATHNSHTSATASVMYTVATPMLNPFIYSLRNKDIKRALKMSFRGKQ

OR5A1 = molecular target: T2, OR5A1 (Homo sapiens, UniProt Q8NGJ0); assay: OR5A1 cell-based cAMP HTRF assay; conditions: dose-response; 100% = full agonist
T2 construct: Lucy (cleavable signal peptide) (N); FLAG (N); Rho (first 20 aa of bovine rhodopsin) (N); expressed in transfected cells
T2 sequence (Q8NGJ0 1-315): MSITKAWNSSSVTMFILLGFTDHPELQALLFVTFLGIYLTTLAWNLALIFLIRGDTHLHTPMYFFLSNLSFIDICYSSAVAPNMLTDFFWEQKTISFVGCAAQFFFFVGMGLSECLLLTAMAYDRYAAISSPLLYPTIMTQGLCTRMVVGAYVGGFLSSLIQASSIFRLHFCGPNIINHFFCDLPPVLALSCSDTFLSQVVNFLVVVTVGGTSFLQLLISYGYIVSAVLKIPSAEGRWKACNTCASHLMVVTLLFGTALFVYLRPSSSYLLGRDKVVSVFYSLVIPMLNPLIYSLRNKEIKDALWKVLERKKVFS

OR8B3 = molecular target: T3, OR8B3 (Homo sapiens, UniProt Q8NGG8); assay: OR8B3 cell-based cAMP HTRF assay; conditions: dose-response, 100% = full agonist; for Emax: read-out: OR8B3 % Efficacy
T3 construct: Lucy (cleavable signal peptide) (N); FLAG (N); Rho (first 20 aa of bovine rhodopsin) (N); expressed in transfected cells
T3 sequence (Q8NGG8 1-313): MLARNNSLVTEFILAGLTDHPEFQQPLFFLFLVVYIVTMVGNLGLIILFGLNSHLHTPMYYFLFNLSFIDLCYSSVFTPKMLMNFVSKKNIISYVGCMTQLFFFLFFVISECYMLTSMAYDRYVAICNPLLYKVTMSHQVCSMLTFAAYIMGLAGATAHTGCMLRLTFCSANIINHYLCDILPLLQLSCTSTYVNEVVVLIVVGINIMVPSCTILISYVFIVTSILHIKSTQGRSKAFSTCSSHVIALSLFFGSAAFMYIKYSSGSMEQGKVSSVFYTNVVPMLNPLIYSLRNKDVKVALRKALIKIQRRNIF

OR11A1 = molecular target: T4, OR11A1 (Homo sapiens, UniProt Q9GZK7); assay: OR11A1 cell-based cAMP HTRF assay in HEK293T cells; conditions: for Emax: HEK-293T, read-out: OR11A1 % Efficacy; for Emax / OR11A1 % Efficacy: dose-response, 100% = full agonist
T4 construct: FLAG (N); Rho (first 20 aa of bovine rhodopsin) (N); expressed in transfected cells
T4 sequence (Q9GZK7 1-315): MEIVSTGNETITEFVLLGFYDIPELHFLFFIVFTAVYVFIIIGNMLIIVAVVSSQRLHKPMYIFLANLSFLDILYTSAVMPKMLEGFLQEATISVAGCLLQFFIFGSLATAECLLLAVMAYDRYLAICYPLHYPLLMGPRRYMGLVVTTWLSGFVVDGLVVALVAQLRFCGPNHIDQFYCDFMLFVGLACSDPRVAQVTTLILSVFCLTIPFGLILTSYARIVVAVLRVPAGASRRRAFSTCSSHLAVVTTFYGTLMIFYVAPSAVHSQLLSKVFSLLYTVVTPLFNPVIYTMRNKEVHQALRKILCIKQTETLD
Description: The molecular receptive range of the human odorant receptor OR11A1 (SEQ ID NO. 11) was tested by performing a large scale screening with a chemically and organoleptically diverse volatile compound library comprising approximately 800 compounds. Using a cell-based assay, OR11A1 was tested in an HEK293T cell line wherein the endogenous RTP1 gene has been activated and the odorant receptor chaperone was expressed (WO2016/201153 A1). Cells were co-transfected with the Flag-Rho-tagged receptor and the canonical olfactory G-protein Golf, and exposed to a single concentration of each test compound, tested individually. Receptor activity was detected by measuring the cAMP increase in the cytosol using an HTRF (Homogenous Time-Resolved Fluorescence unit) based kit (CisBio, cAMP dynamic 2 kit, 62AM4PEJ).
First, 300 mM stock solutions for 798 test compounds were made in pure DMSO. The stock solutions for each compound were further diluted to a final test concentration of 300 μM. The final concentration of DMSO was 0.1%, and had no visible effect on the cells. Each compound was presented to a cell line expressing the OR11A1 olfactory receptor. The quality of this high-throughput screening (HTS) process was determined and the window variability and signal reliability were assessed by calculating the Z′ value of each plate (the average Z′ value per plate was 0.72±0.12, well within the required quality standards between 0.5 and 1). The result of this single concentration activation screen is shown in FIG. 3, where hits are highlighted in light grey dots.
In a subsequent step using the same cell-based assay described above, the candidate hits were confirmed to be true agonists (activators) by performing dose-response experiments as shown in FIG. 4 for a subset of the best hits. […] Both sensitivity (potency) and activation strength (efficacy) were calculated from the curves, as a measure of EC50 (the concentration required to reach half-maximal activation level) and Span (the assay window span between baseline activity level and activation saturation plateau), respectively. These values were used to represent the molecular receptive range of OR11A1 according to the potency (X axis) and efficacy (Y axis) in FIG. 5. A partial agonist, Tonalide, is also listed. The […] agonists cover distinct perfumery tonalities: woody (Patchouli Alcohol), musky (Vulcanolide, Tonalide), and camphorous (Fenchyl Alcohol), Table 2. Taken together, the data depict the diversity of both the organoleptic tonalities and chemical structures of compounds capable of activating OR11A1, congruent with results described in WO2016/201152 A1 (musk) and EP2832347A1.(patchouli). The OR11A1 activity however was not associated with the tonalities of musk (WO2016/201152 A1) or patchouli (EP2832347A1) specifically but rather the earthy facet thereof. In fact, the single commonality between these compounds was the earthy tonality, which is semantically captured by the following descriptors: earthy, humus and earthy-moss. These compounds are neither all musks nor patchouli but they all are earthy.

OR5AU1 = molecular target: T5, OR5AU1 (Homo sapiens, UniProt Q8NGC0); assay: OR5AU1 cell-based cAMP HTRF assay; conditions: for Emax: read-out: OR5AU1 % Efficacy; for Active OR/Linked Tonality: OR5AU1 (Lactonic Coconut): receptor listed = activated by the compound
T5 construct: Lucy (cleavable signal peptide) (N); FLAG (N); Rho (first 20 aa of bovine rhodopsin) (N); expressed in transfected cells
T5 sequence (Q8NGC0 52-362): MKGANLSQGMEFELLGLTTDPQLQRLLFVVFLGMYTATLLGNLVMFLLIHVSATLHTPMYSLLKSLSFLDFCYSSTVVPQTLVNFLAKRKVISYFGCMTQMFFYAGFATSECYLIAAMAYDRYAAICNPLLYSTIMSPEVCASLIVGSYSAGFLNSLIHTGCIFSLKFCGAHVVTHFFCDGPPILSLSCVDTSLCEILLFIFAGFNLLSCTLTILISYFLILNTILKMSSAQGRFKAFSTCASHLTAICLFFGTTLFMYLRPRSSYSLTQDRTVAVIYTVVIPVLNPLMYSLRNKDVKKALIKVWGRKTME

[1] = dose-response, 100% = full agonist

1-(2,3,8,8-tetramethyl-1,3,4,6,7,8~{a}-hexahydronaphthalen-2-yl)ethanone; 1-(2,3,8,8-tetramethyl-1,3,5,6,7,8~{a}-hexahydronaphthalen-2-yl)ethanone; 1-(2,3,8,8-tetramethyl-1,3,4,5,6,7-hexahydronaphthalen-2-yl)ethanone [Derambrene]
OR7A17 % Efficacy (OR7A17): 83%

1-(4,8-dimethyl-12-methylidenecyclododeca-4,8-dien-1-yl)ethanone; 1-(2,6,10-trimethylcyclododeca-1,5,9-trien-1-yl)ethanone; 1-(2,6,10-trimethylcyclododeca-2,5,9-trien-1-yl)ethanone [Trimofix]
OR7A17 % Efficacy (OR7A17): 74%

4-(2,6,6-trimethylcyclohexen-1-yl)but-3-en-2-one; 4-(2,6,6-trimethylcyclohex-2-en-1-yl)but-3-en-2-one [Violette AT]
OR5A1 % Efficacy (OR5A1): 78%

9-ethylidene-3-oxatricyclo[6.2.1.0^{2,7}]undecan-4-one; 10-ethylidene-3-oxatricyclo[6.2.1.0^{2,7}]undecan-4-one [Florex]
OR8B3 % Efficacy (OR8B3): 74%

CC(=O)/C(C)=C/C1C(C)=CCCC1(C)C (racemic) [Methyl ionone gamma, (+−)-(e)-3-methyl-4-(2,6,6-trimethyl-2-cyclohexen-1-yl)-3-buten-2-one]
Emax (OR7A17; read-out: OR7A17 % Efficacy): 65%

CC1(C)CCCC(C)(C)C1=O [2,2,6,6-tetramethyl-1-cyclohexanone]
OR11A1 agonism in dose-response experiments (OR11A1): did not yield any significant dose-response

O=c1ccc2ccccc2o1 [Coumarin, chromen-2-one]
Emax (OR8B3): 95%

CCCCCC1CCCC1=O (stereo not drawn) [Delphone, 2-pentylcyclopentan-1-one]
Emax (OR5AU1; [1]): 80%

CC=CCCC1CCCC(=O)O1 (stereo not drawn) [Delta Jasmolactone, 6-pent-3-enyloxan-2-one]
Emax (OR5AU1; [1]): 92%
Active OR/Linked Tonality: OR5AU1 (Lactonic Coconut) (OR5AU1): OR5AU1/

CCCCCC1CCCC(=O)O1 (stereo not drawn) [Delta decalactone, 6-pentyloxan-2-one]
Emax (OR5AU1; [1]): 88%

CC12CCC(C1)C(C)(C)C2O (stereo not drawn) [Fenchyl Alcohol, (1~{R},2~{R},4~{S})-1,3,3-trimethylbicyclo[2.2.1]heptan-2-ol]
Emax (OR11A1): 86%

CCCCCCC1CCC(=O)O1 (stereo not drawn) [Gamma Decalactone, 5-hexyloxolan-2-one]
Active OR/Linked Tonality: OR5AU1 (Lactonic Coconut) (OR5AU1): OR5AU1/

CCCCC1CCC(=O)O1 (stereo not drawn) [Gamma Octalactone, 5-butyloxolan-2-one]
Active OR/Linked Tonality: OR5AU1 (Lactonic Coconut) (OR5AU1): OR5AU1/
Emax (OR8B3): 100%

CC1CCCC2(C)CCCCC12O (stereo not drawn) [Geosmin, (4~{S},8~{a}~{R})-4,8~{a}-dimethyl-1,2,3,4,5,6,7,8-octahydronaphthalen-4~{a}-ol]
Emax (OR11A1): 100%

CCCCC1CCCC(=O)O1 (stereo not drawn) [Nonalactone Delta, 6-butyloxan-2-one]
Active OR/Linked Tonality: OR5AU1 (Lactonic Coconut) (OR5AU1): OR5AU1/
Emax (OR8B3): 97%

O=C1CCC2CCCCC2O1 (stereo not drawn) [Octahydrocoumarine, 3,4,4~{a},5,6,7,8,8~{a}-octahydrochromen-2-one]
OR8B3 % Efficacy (OR8B3): 95%

CCCC1CCCC(=O)O1 (stereo not drawn) [Octalactone Delta, 6-propyloxan-2-one]
Active OR/Linked Tonality: OR5AU1 (Lactonic Coconut) (OR5AU1): OR5AU1/

C[C@@H]1CC[C@]2(O)C(C)(C)[C@H]3CC[C@@]2(C)[C@@H]1C3 [Patchouli Alcohol, (1~{S},3~{S},6~{R},7~{R},8~{S})-2,2,6,8-tetramethyltricyclo[5.3.1,0^{3,8}]undecan-3-ol]
OR11A1 % Efficacy (OR11A1): 83%

CC(=O)c1cc2c(cc1C)C(C)(C)C(C)CC2(C)C (stereo not drawn) [Tonalide, 1-(3,5,5,6,8,8-hexamethyl-6,7-dihydronaphthalen-2-yl)ethanone]
OR11A1 agonism in dose-response experiments (OR11A1): weak (partial) agonist
Emax (OR11A1): 21%

CC1(C)[C@H]2C[C@H]3CCC(=O)C=C3[C@@H]1C2 [Tricyclone, (1~{R},7~{R},9~{S})-10,10-dimethyltricyclo[7.1.1.0^{2,7}]undec-2-en-4-one]
OR8B3 % Efficacy (OR8B3): 77%

CCCCC[C@H]1OC(=O)C[C@H]1C [Tuberolide Ht, (4~{R},5~{R})-4-methyl-5-pentyloxolan-2-one]
OR5AU1 % Efficacy (OR5AU1; [1]): 100%

Cc1cc2c(cc1C=O)C(C)(C)[C@H](C)[C@@H](C)C2(C)C [Vulcanolide, (6~{R},7~{R})-3,5,5,6,7,8,8-heptamethyl-6,7-dihydronaphthalene-2-carbaldehyde]
OR11A1 % Efficacy (OR11A1): 89%

CCCCC1OC(=O)CC1C (stereo not drawn) [Whiskey Lactone K, 5-butyl-4-methyloxolan-2-one]
Active OR/Linked Tonality: OR5AU1 (Lactonic Coconut) (OR5AU1): OR5AU1/
Emax (OR8B3): 88%

C[C@@H]1[C@@H]2C[C@H](C[C@]13C=CC(=O)CC3)C2(C)C [Wolfwood, (1~{S},2~{R},3~{R},5~{R})-2,6,6-trimethylspiro[bicyclo[3.1.1]heptane-3,4′-cyclohex-2-ene]-1′-one]
OR7A17 % Efficacy (OR7A17): 100%

CC1(C)CCC[C@]2(C)CC(=O)CC[C@@H]12 [Z-95, (4~{a}~{S},8~{a}~{R})-5,5,8~{a}-trimethyl-3,4,4~{a},6,7,8-hexahydro-1~{H}-naphthalen-2-one]
OR7A17 % Efficacy (OR7A17): 82%
